This note sets out measurements from patent US20250163066A1, “PROTACs of MALT1” (TEGID THERAPEUTICS, INC., priority 2022, published 2025).

Structures are written as SMILES.

Experiment [1] has as its system IL-2 MALT1-dependent release in Jurkat cells. As to the kind of experiment: cells. The format is cell-based. The note with it: Homo sapiens; for EC50: Jurkat cells stimulated with antiCD3/antiCD28 for 24 h, IL-2 ELISA, read-out: EC50, IL-2 MALT1-dependent release inhibition; for CC50: Jurkat, 24 h, read-out: CC50 (IL-2 MALT1-dependent release inhibition). On the procedure: Jurkat cells (ATCC, USA) (100,000 cells/well in a 96 well flat-bottom plate (Greiner, #655061) were cultured in RPMI 1640 supplemented with 10% FBS at 37° C., 5% CO2 in a humidified cell culture incubator for 0.5-1 h. Then 10 μl/well 15× compound (or DMSO) was added in duplicates. Cells were incubated with compound in a humidified cell culture incubator for 0.5-1 h. After the incubation, 10 μl/well of 15× human antiCD3 HIT3a antibody (BioLegend) together with 10 μl/well of 15× human antiCD28 antibody (Invitrogen) were added to stimulate Jurkat cells for 24 h. After 24 h of stimulation, supernatants were collected and IL-2 levels in supernatants were assessed using IL-2 ELISA kit (Vector-Best, Russia).
On the technique in general: In an ELISA, binding on a coated surface is turned into a signal by an enzyme label.

The next experiment deals with MALT1 (Homo sapiens (Human), UniProt Q9UDY8). As to the kind of experiment: MALT1 enzymatic activity inhibition (fluorescence, Ac-LRSR-AMC substrate). Particulars: recombinant MALT1 1.5 ng/μl, Ac-LRSR-AMC 1 μM. In kind it is biochemical. In a few lines:
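Recombinant human MALT1 (1.5 ng/μl final) preincubated 10 min at rt with compounds in 50 mM HEPES pH 7.2-7.4, 100 mM NaCl, 900 mM sodium citrate, 10 mM DTT; 1 μM Ac-LRSR-AMC then added. AMC fluorescence read at start and after 30 min 37 °C plus 30 min rt; difference gives signal, % inhibition fitted to IC50.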

MALT1, sequence (Q9UDY8 whole entry): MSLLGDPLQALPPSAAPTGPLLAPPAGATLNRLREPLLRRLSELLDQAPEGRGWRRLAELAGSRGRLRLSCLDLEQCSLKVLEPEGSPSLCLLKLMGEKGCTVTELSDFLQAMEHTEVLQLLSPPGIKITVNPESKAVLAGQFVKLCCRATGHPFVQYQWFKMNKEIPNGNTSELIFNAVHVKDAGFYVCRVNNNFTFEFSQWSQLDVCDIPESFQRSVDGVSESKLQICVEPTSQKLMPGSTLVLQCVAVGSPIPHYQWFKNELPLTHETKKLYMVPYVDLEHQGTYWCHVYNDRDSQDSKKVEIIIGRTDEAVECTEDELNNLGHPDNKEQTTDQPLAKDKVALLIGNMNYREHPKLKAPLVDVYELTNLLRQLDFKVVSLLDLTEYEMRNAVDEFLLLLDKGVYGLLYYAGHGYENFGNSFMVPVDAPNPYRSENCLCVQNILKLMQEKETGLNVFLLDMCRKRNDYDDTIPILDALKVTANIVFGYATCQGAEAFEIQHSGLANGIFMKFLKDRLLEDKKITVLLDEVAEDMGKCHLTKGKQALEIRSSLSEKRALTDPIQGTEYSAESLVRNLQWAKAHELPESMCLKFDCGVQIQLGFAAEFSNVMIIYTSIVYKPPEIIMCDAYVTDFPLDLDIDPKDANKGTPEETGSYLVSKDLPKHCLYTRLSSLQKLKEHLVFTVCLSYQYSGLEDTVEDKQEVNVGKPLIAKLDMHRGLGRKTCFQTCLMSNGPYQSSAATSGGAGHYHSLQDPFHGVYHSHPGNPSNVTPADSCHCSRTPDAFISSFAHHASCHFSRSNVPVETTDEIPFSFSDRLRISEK

For the molecule `Cc1cc(NC(=O)Nc2cnc3ccnn3c2C2CCCC2)cnc1-c1noc(CCCCCN2CCN(c3ccc4c(c3)CN(C3CCC(=O)N(COC(=O)C(C)(C)C)C3=O)C4=O)CC2)n1` (stereo not shown) [Compound 88, [3-[5-[4-[5-[3-[5-[(7-cyclopentylpyrazolo[1,5-a]pyrimidin-6-yl)carbamoylamino]-3-methyl-2-pyridyl]-1,2,4-oxadiazol-5-yl]pentyl]piperazin-1-yl]-1-oxo-isoindolin-2-yl]-2,6-dioxo-1-piperidyl]methyl 2,2-dimethylpropanoate], the figures for the EC50 (in experiment [1]; at MALT1) were 1000 to 5000 nM and no more than 0.2 µM, respectively.

For the molecule `Cc1cc(NC(=O)Nc2cnc3ccnn3c2C2CCCC2)cnc1-c1noc(CCCN2CCN(c3cc4c(cc3F)C(=O)N(C3CCC(=O)NC3=O)C4=O)CC2)n1` (stereo not shown) [Compound 23, 1-(7-cyclopentylpyrazolo[1,5-a]pyrimidin-6-yl)-3-[6-[5-[3-[4-[2-(2,6-dioxo-3-piperidyl)-6-fluoro-1,3-dioxo-isoindolin-5-yl]piperazin-1-yl]propyl]-1,2,4-oxadiazol-3-yl]-5-methyl-3-pyridyl]urea], the figures for the EC50 (in experiment [1]; on MALT1) were less than 500 nM and 0.2 to 0.5 µM, respectively.

For the molecule `Cc1cc(NC(=O)Nc2cnc3ccnn3c2C2CCC2)cnc1-c1noc(CCCCC(=O)N2CCN(c3ccc4c(c3)CN(C3CCC(=O)NC3=O)C4=O)CC2)n1` (stereo not shown) [Compound 112, 1-(7-cyclobutylpyrazolo[1,5-a]pyrimidin-6-yl)-3-[6-[5-[5-[4-[2-(2,6-dioxo-3-piperidyl)-1-oxo-isoindolin-5-yl]piperazin-1-yl]-5-oxo-pentyl]-1,2,4-oxadiazol-3-yl]-5-methyl-3-pyridyl]urea], in experiment [1], the CC50 – broadly, the concentration giving 50% cytotoxicity – is greater than 5000 nM. Further, the EC50 (as a rule, the concentration that produces a half-maximal response) at MALT1 was no more than 0.2 µM.

Turning to `O=C1CCC(N2Cc3cc(N4CCN(CCCCCCc5nc(-c6ncc(NC(=O)Nc7cnc8ccnn8c7C7CCCCC7)cc6Cl)no5)CC4)ccc3C2=O)C(=O)N1` (stereo not shown) [Compound 119, 1-[5-chloro-6-[5-[6-[4-[2-(2,6-dioxo-3-piperidyl)-1-oxo-isoindolin-5-yl]piperazin-1-yl]hexyl]-1,2,4-oxadiazol-3-yl]-3-pyridyl]-3-(7-cyclohexylpyrazolo[1,5-a]pyrimidin-6-yl)urea], the half-maximal cytotoxic concentration (CC50) in experiment [1] is less than 500 nM. Further, the EC50 at MALT1 is no more than 0.2 µM.

Regarding `Cc1cc(NC(=O)Nc2cnc3ccnn3c2C2CCCC2)cnc1-c1noc(CCC(=O)N2CCN(c3ccc4c(c3)CN(C3CCC(=O)NC3=O)C4=O)CC2)n1` (stereo not shown) [Compound 13, 1-(7-cyclopentylpyrazolo[1,5-a]pyrimidin-6-yl)-3-[6-[5-[3-[4-[2-(2,6-dioxo-3-piperidyl)-1-oxo-isoindolin-5-yl]piperazin-1-yl]-3-oxo-propyl]-1,2,4-oxadiazol-3-yl]-5-methyl-3-pyridyl]urea], the EC50 in experiment [1] was greater than 5000 nM; on MALT1, no more than 0.2 µM.

Take `Cc1cc(NC(=O)Nc2cnc3ccnn3c2C(C)C)cnc1-c1noc(CCCCCN2CCN(c3ccc4c(c3)CN(C3CCC(=O)NC3=O)C4=O)CC2)n1` (stereo not shown) [Compound 87, 1-[6-[5-[5-[4-[2-(2,6-dioxo-3-piperidyl)-1-oxo-isoindolin-5-yl]piperazin-1-yl]pentyl]-1,2,4-oxadiazol-3-yl]-5-methyl-3-pyridyl]-3-(7-isopropylpyrazolo[1,5-a]pyrimidin-6-yl)urea]: the EC50 in experiment [1] is less than 500 nM; on MALT1, no more than 0.2 µM.

With `Cc1cc(NC(=O)Nc2cnc3ccnn3c2C2CCCC2)cnc1-c1noc(CCCCCN2CCN(c3cc4c(cc3F)C(=O)N(C3CCC(=O)NC3=O)C4=O)CC2)n1` (stereo not shown) [Compound 55, 1-(7-cyclopentylpyrazolo[1,5-a]pyrimidin-6-yl)-3-[6-[5-[5-[4-[2-(2,6-dioxo-3-piperidyl)-6-fluoro-1,3-dioxo-isoindolin-5-yl]piperazin-1-yl]pentyl]-1,2,4-oxadiazol-3-yl]-5-methyl-3-pyridyl]urea], the EC50 in experiment [1] was 500 to 1000 nM; at MALT1, no more than 0.2 µM.

For the molecule `O=C1CCC(N2Cc3cc(N4CCN(C(=O)CCCc5nc(-c6ncc(NC(=O)Nc7cnc8ccnn8c7C7CCCCC7)cc6Cl)no5)CC4)ccc3C2=O)C(=O)N1` (stereo not shown) [Compound 120, 1-[5-chloro-6-[5-[4-[4-[2-(2,6-dioxo-3-piperidyl)-1-oxo-isoindolin-5-yl]piperazin-1-yl]-4-oxo-butyl]-1,2,4-oxadiazol-3-yl]-3-pyridyl]-3-(7-cyclohexylpyrazolo[1,5-a]pyrimidin-6-yl)urea], the CC50 in experiment [1] was less than 500 nM. Besides, the 50% effective concentration (EC50) on MALT1 is no more than 0.2 µM.

Regarding `Cc1cc(NC(=O)Nc2cnc3ccnn3c2C(C)C)cnc1-c1noc(CCCCCCN2CCN(c3ccc4c(c3)CN(C3CCC(=O)NC3=O)C4=O)CC2)n1` (stereo not shown) [Compound 92, 1-[6-[5-[6-[4-[2-(2,6-dioxo-3-piperidyl)-1-oxo-isoindolin-5-yl]piperazin-1-yl]hexyl]-1,2,4-oxadiazol-3-yl]-5-methyl-3-pyridyl]-3-(7-isopropylpyrazolo[1,5-a]pyrimidin-6-yl)urea], the EC50 was less than 500 nM in experiment [1] and no more than 0.2 µM on MALT1.

As to `O=C1CCC(N2Cc3cc(N4CCN(CCCCCc5nc(-c6ncc(NC(=O)Nc7cnc8ccnn8c7C7CCCC7)cc6Cl)no5)CC4)ccc3C2=O)C(=O)N1` (stereo not shown) [Compound 79, 1-[5-chloro-6-[5-[5-[4-[2-(2,6-dioxo-3-piperidyl)-1-oxo-isoindolin-5-yl]piperazin-1-yl]pentyl]-1,2,4-oxadiazol-3-yl]-3-pyridyl]-3-(7-cyclopentylpyrazolo[1,5-a]pyrimidin-6-yl)urea], the EC50 in experiment [1] was less than 500 nM; on MALT1, no more than 0.2 µM.

Regarding `Cc1cc(NC(=O)Nc2cnc3ccnn3c2C2CCCCC2)cnc1-c1noc(CCCCCC(=O)Nc2ccc3c(c2)CN(C2CCC(=O)NC2=O)C3=O)n1` (stereo not shown) [Compound 109, 6-[3-[5-[(7-cyclohexylpyrazolo[1,5-a]pyrimidin-6-yl)carbamoylamino]-3-methyl-2-pyridyl]-1,2,4-oxadiazol-5-yl]-N-[2-(2,6-dioxo-3-piperidyl)-1-oxo-isoindolin-5-yl]hexanamide], the CC50 in experiment [1] was less than 500 nM. Further, the half-maximal effective concentration (EC50) at MALT1 lay in the range of 0.2 to 0.5 µM.

Consider `Cc1cc(NC(=O)Nc2cnc3ccnn3c2C2CCCC2)cnc1-c1noc(CCCCC(=O)N2CCN(c3ccc4c(c3)CN(C3CCC(=O)NC3=O)C4=O)CC2)n1` (stereo not shown) [Compound 14, 1-(7-cyclopentylpyrazolo[1,5-a]pyrimidin-6-yl)-3-[6-[5-[5-[4-[2-(2,6-dioxo-3-piperidyl)-1-oxo-isoindolin-5-yl]piperazin-1-yl]-5-oxo-pentyl]-1,2,4-oxadiazol-3-yl]-5-methyl-3-pyridyl]urea], for which the EC50 in experiment [1] was 1000 to 5000 nM; on MALT1 it was no more than 0.2 µM.

Regarding `O=C(CCOCCN1CCN(c2ccc3c(c2)CN(C2CCC(=O)NC2=O)C3=O)CC1)NCCOc1ncc(Cl)cc1NC(=O)Nc1cnc2ccnn2c1C1CCCC1` (stereo not shown) [Compound 37, N-[2-[[5-chloro-3-[(7-cyclopentylpyrazolo[1,5-a]pyrimidin-6-yl)carbamoylamino]-2-pyridyl]oxy]ethyl]-3-[2-[4-[2-(2,6-dioxo-3-piperidyl)-1-oxo-isoindolin-5-yl]piperazin-1-yl]ethoxy]propanamide], the EC50 in experiment [1] fell in the range of 1000 to 5000 nM; at MALT1, 0.5 to 1 µM.

On to `Cc1cc(NC(=O)Nc2cnc3ccnn3c2C2CCCCC2)cnc1-c1noc(CCCCCCN2CCN(c3ccc4c(c3)CN(C3CCC(=O)NC3=O)C4=O)CC2)n1` (stereo not shown) [Compound 122, 1-(7-cyclohexylpyrazolo[1,5-a]pyrimidin-6-yl)-3-[6-[5-[6-[4-[2-(2,6-dioxo-3-piperidyl)-1-oxo-isoindolin-5-yl]piperazin-1-yl]hexyl]-1,2,4-oxadiazol-3-yl]-5-methyl-3-pyridyl]urea], for which the CC50 in experiment [1] was less than 500 nM. The concentration giving a half-maximal response (EC50) at MALT1 was no more than 0.2 µM.

For `Cc1cc(NC(=O)Nc2cnc3ccnn3c2C2CCCC2)cnc1-c1noc(CCCCCN2CCN(c3ccc4c(c3)CN(C3CCC(=O)NC3=O)C4=O)CC2)n1` (stereo not shown) [Compound 17, 1-(7-cyclopentylpyrazolo[1,5-a]pyrimidin-6-yl)-3-[6-[5-[5-[4-[2-(2,6-dioxo-3-piperidyl)-1-oxo-isoindolin-5-yl]piperazin-1-yl]pentyl]-1,2,4-oxadiazol-3-yl]-5-methyl-3-pyridyl]urea], the EC50 in experiment [1] is less than 500 nM; on MALT1, no more than 0.2 µM.

On to `Cc1cc(NC(=O)Nc2cnc3ccnn3c2C2CCCCC2)cnc1-c1noc(CCCCCC(=O)N2CCN(c3ccc4c(c3)CN(C3CCC(=O)NC3=O)C4=O)CC2)n1` (stereo not shown) [Compound 107, 1-(7-cyclohexylpyrazolo[1,5-a]pyrimidin-6-yl)-3-[6-[5-[6-[4-[2-(2,6-dioxo-3-piperidyl)-1-oxo-isoindolin-5-yl]piperazin-1-yl]-6-oxo-hexyl]-1,2,4-oxadiazol-3-yl]-5-methyl-3-pyridyl]urea], for which the figures for the EC50 (in experiment [1]; at MALT1) were 1000 to 5000 nM and no more than 0.2 µM, respectively.

Turning to `O=C1CCC(N2Cc3cc(N4CCN(C(=O)CCCCCc5nc(-c6ncc(NC(=O)Nc7cnc8ccnn8c7C7CCC7)cc6Cl)no5)CC4)ccc3C2=O)C(=O)N1` (stereo not shown) [Compound 116, 1-[5-chloro-6-[5-[6-[4-[2-(2,6-dioxo-3-piperidyl)-1-oxo-isoindolin-5-yl]piperazin-1-yl]-6-oxo-hexyl]-1,2,4-oxadiazol-3-yl]-3-pyridyl]-3-(7-cyclobutylpyrazolo[1,5-a]pyrimidin-6-yl)urea], in experiment [1], the CC50 was less than 500 nM. Also, the EC50 at MALT1 is no more than 0.2 µM.
